Source: the NIST ThermoML archive (doi:10.1016/j.fluid.2017.06.024)

Conditions: Liquid; for speed of sound: Frequency=3 MHz, Pulse-echo method; for mass density: Vibrating tube method

CC(C)OC(C)C [diisopropyl ether]
Conditions | mass density [kg/m3] | speed of sound [m/s]
293.15 K, 100 kPa | 723.5 | 1019.7
293.15 K, 10000 kPa | 734.6 | –
293.15 K, 20000 kPa | 744.5 | 1161.2
293.15 K, 30000 kPa | 753.3 | –
293.15 K, 40000 kPa | 761.3 | 1274.5
293.15 K, 50000 kPa | 768.6 | –
293.15 K, 60000 kPa | 775.4 | 1369.3
293.15 K, 70000 kPa | 781.7 | –
293.15 K, 80000 kPa | 787.6 | 1454.2
293.15 K, 90000 kPa | 793.2 | –
293.15 K, 100000 kPa | 798.5 | 1528.7
293.15 K, 110000 kPa | 803.5 | –
293.15 K, 120000 kPa | 808.4 | –
293.15 K, 130000 kPa | 813 | –
293.15 K, 140000 kPa | 817.4 | –
303.15 K, 100 kPa | 712.9 | 974.32
303.15 K, 10000 kPa | 725.2 | –
303.15 K, 20000 kPa | 735.9 | 1122.6
303.15 K, 30000 kPa | 745.3 | –
303.15 K, 40000 kPa | 753.8 | 1240.4
303.15 K, 50000 kPa | 761.5 | –
303.15 K, 60000 kPa | 768.5 | 1337.6
303.15 K, 70000 kPa | 775.1 | –
303.15 K, 80000 kPa | 781.2 | 1423.4
303.15 K, 90000 kPa | 787 | –
303.15 K, 100000 kPa | 792.4 | 1501.9
303.15 K, 110000 kPa | 797.6 | –
303.15 K, 120000 kPa | 802.5 | –
303.15 K, 130000 kPa | 807.3 | –
303.15 K, 140000 kPa | 811.8 | –
313.15 K, 100 kPa | 702.2 | 930.24
313.15 K, 10000 kPa | 715.5 | –
313.15 K, 20000 kPa | 726.9 | 1086.8
313.15 K, 30000 kPa | 736.9 | –
313.15 K, 40000 kPa | 745.7 | 1207.9
313.15 K, 50000 kPa | 753.8 | –
313.15 K, 60000 kPa | 761.1 | 1308.1
313.15 K, 70000 kPa | 768.1 | –
313.15 K, 80000 kPa | 774.3 | 1396.7
313.15 K, 90000 kPa | 780.3 | –
313.15 K, 100000 kPa | 786 | 1475
313.15 K, 110000 kPa | 791.5 | –
313.15 K, 120000 kPa | 796.4 | –
313.15 K, 130000 kPa | 801.4 | –
313.15 K, 140000 kPa | 805.9 | –
323.15 K, 100 kPa | 691.5 | 887.83
323.15 K, 10000 kPa | 706 | –
323.15 K, 20000 kPa | 718 | 1051.9
323.15 K, 30000 kPa | 728.5 | –
323.15 K, 40000 kPa | 737.8 | 1177.1
323.15 K, 50000 kPa | 746.2 | –
323.15 K, 60000 kPa | 753.9 | 1279
323.15 K, 70000 kPa | 761 | –
323.15 K, 80000 kPa | 767.5 | 1368.7
323.15 K, 90000 kPa | 773.7 | –
323.15 K, 100000 kPa | 779.5 | 1448.7
323.15 K, 110000 kPa | 785 | –
323.15 K, 120000 kPa | 790.3 | –
323.15 K, 130000 kPa | 795.2 | –
323.15 K, 140000 kPa | 800 | –
333.15 K, 100 kPa | 680.6 | 847.29
333.15 K, 10000 kPa | 696.3 | –
333.15 K, 20000 kPa | 709.3 | 1017.8
333.15 K, 30000 kPa | 720.5 | –
333.15 K, 40000 kPa | 730.3 | 1146.8
333.15 K, 50000 kPa | 739.1 | –
333.15 K, 60000 kPa | 747.1 | 1252.4
333.15 K, 70000 kPa | 754.5 | –
333.15 K, 80000 kPa | 761.4 | 1343.2
333.15 K, 90000 kPa | 767.8 | –
333.15 K, 100000 kPa | 773.8 | 1423.5
333.15 K, 110000 kPa | 779.4 | –
333.15 K, 120000 kPa | 784.8 | –
333.15 K, 130000 kPa | 789.9 | –
333.15 K, 140000 kPa | 794.7 | –
343.15 K, 10000 kPa | 686 | –
343.15 K, 20000 kPa | 700 | 984.53
343.15 K, 30000 kPa | 711.8 | –
343.15 K, 40000 kPa | 722.2 | 1117.8
343.15 K, 50000 kPa | 731.4 | –
343.15 K, 60000 kPa | 739.7 | 1226.4
343.15 K, 70000 kPa | 747.3 | –
343.15 K, 80000 kPa | 754.4 | 1318.7
343.15 K, 90000 kPa | 761 | –
343.15 K, 100000 kPa | 767.2 | 1400.8
343.15 K, 110000 kPa | 773.2 | –
343.15 K, 120000 kPa | 778.6 | –
343.15 K, 130000 kPa | 784 | –
343.15 K, 140000 kPa | 788.9 | –
353.15 K, 10000 kPa | 676.2 | –
353.15 K, 20000 kPa | 691.2 | 953.14
353.15 K, 30000 kPa | 703.7 | –
353.15 K, 40000 kPa | 714.6 | 1090.7
353.15 K, 50000 kPa | 724.2 | –
353.15 K, 60000 kPa | 733 | 1200.4
353.15 K, 70000 kPa | 740.9 | –
353.15 K, 80000 kPa | 748.2 | 1294.6
353.15 K, 90000 kPa | 755.1 | –
353.15 K, 100000 kPa | 761.4 | 1378.4
353.15 K, 110000 kPa | 767.3 | –
353.15 K, 120000 kPa | 773 | –
353.15 K, 130000 kPa | 778.4 | –
353.15 K, 140000 kPa | 783.5 | –
363.15 K, 10000 kPa | 666.1 | –
363.15 K, 20000 kPa | 682.3 | –
363.15 K, 30000 kPa | 695.6 | –
363.15 K, 40000 kPa | 707 | –
363.15 K, 50000 kPa | 717.1 | –
363.15 K, 60000 kPa | 726.1 | –
363.15 K, 70000 kPa | 734.4 | –
363.15 K, 80000 kPa | 742 | –
363.15 K, 90000 kPa | 749 | –
363.15 K, 100000 kPa | 755.5 | –
363.15 K, 110000 kPa | 761.7 | –
363.15 K, 120000 kPa | 767.5 | –
363.15 K, 130000 kPa | 773 | –
363.15 K, 140000 kPa | 778.3 | –
373.15 K, 10000 kPa | 655.9 | –
373.15 K, 20000 kPa | 673.3 | –
373.15 K, 30000 kPa | 687.4 | –
373.15 K, 40000 kPa | 699.4 | –
373.15 K, 50000 kPa | 709.9 | –
373.15 K, 60000 kPa | 719.3 | –
373.15 K, 70000 kPa | 728 | –
373.15 K, 80000 kPa | 735.7 | –
373.15 K, 90000 kPa | 743.1 | –
373.15 K, 100000 kPa | 749.8 | –
373.15 K, 110000 kPa | 756.2 | –
373.15 K, 120000 kPa | 762.2 | –
373.15 K, 130000 kPa | 767.8 | –
373.15 K, 140000 kPa | 773.1 | –
383.15 K, 10000 kPa | 645.3 | –
383.15 K, 20000 kPa | 664 | –
383.15 K, 30000 kPa | 679 | –
383.15 K, 40000 kPa | 691.8 | –
383.15 K, 50000 kPa | 702.8 | –
383.15 K, 60000 kPa | 712.5 | –
383.15 K, 70000 kPa | 721.4 | –
383.15 K, 80000 kPa | 729.5 | –
383.15 K, 90000 kPa | 737 | –
383.15 K, 100000 kPa | 743.9 | –
383.15 K, 110000 kPa | 750.4 | –
383.15 K, 120000 kPa | 756.6 | –
383.15 K, 130000 kPa | 762.4 | –
383.15 K, 140000 kPa | 767.9 | –
393.15 K, 10000 kPa | 634.8 | –
393.15 K, 20000 kPa | 654.9 | –
393.15 K, 30000 kPa | 670.7 | –
393.15 K, 40000 kPa | 684 | –
393.15 K, 50000 kPa | 695.4 | –
393.15 K, 60000 kPa | 705.6 | –
393.15 K, 70000 kPa | 714.8 | –
393.15 K, 80000 kPa | 722.9 | –
393.15 K, 90000 kPa | 730.8 | –
393.15 K, 100000 kPa | 738 | –
393.15 K, 110000 kPa | 744.6 | –
393.15 K, 120000 kPa | 750.9 | –
393.15 K, 130000 kPa | 756.8 | –
393.15 K, 140000 kPa | 762.3 | –
